Counter-ions that a name gives are not always drawn.

One test relates to Porcine Smooth Muscle Cell. Briefly: Effects of compounds on cell proliferation using 3H thymidine incorporation. In kind it is cell-based. As to conditions: @ 50 μM. Here is the method:
The compounds of this invention are useful as antiproliferative agents. The following procedures show the evaluation of representative compounds of this invention in standard pharmacological test procedure which measured ability of the evaluated compound to inhibit smooth muscle cell proliferation
Effects of Compounds On Cell Proliferation Using ^3H Thymidine Incorporation
Human and porcine smooth muscle cells were tested in early passage (generally passage 3-7) at sub-confluent conditions. Cultures were grown in 16 mm (24 well) multi-well culture dishes in medium 199 supplemented with 10% fetal bovine serum and 2% antibiotic/antimycotic. At sub-confluence, the cells were placed in a defined serum free medium (AIM-V; Gibco) for 24-48 h prior to initiating the experimental protocol.
Compounds were added to each well at 50 fold dilution (20 μL/well) and the plates were incubated for 24-36 h at 37° C. in 5% CO2. Compounds were initially dissolved in 50% ethanol and serially diluted into media. Compounds were routinely evaluated at concentrations from 1 to 100 μM. As a control, grade II porcine intestinal mucosal heparin (sodium salt) was routinely evaluated in all cell preparations at concentrations from 0.1 to 100 μg/mL.
At the completion of the test procedure, plates were placed on ice, washed three times with ice cold phosphate buffered saline (PBS) and incubated in ice cold 10% trichloroacetic acid (TCA) got 30 min to remove acid soluble proteins. Solution was transferred to scintillation vials containing 0.4 N HCl (500 μL/vial to neutralize NaOH) and each well was rinsed two times with water (500 μL) for a total volume of 2 mL/vial.
Data was obtained, in triplicate, for both control and experimental samples. Control (100%) data was obtained from maximally stimulated cells, as the result of growth factor or serum stimulation. Experimental data was obtained from cells maximally stimulated with growth factor or serum and treated with compound. Data are expressed as an IC50 or percent inhibition in Table I below.
With `O=[N+]([O-])c1cc(CS[C@@H]2O[C@H](CO)[C@@H](O[C@H]3O[C@H](CO)[C@@H](O)[C@H](O)[C@H]3O)[C@H](O)[C@H]2O)ccc1Cl` [Example 18, (4-Chloro-3-nitro-benzyl)-1-deoxy-1-thio-β-D-maltoside], the “Porcine Smooth Muscle Cell Antiproliferation percent inhibition” value turned out to be 25% @ 50.

With `CC(=O)Nc1cc(CSC2OC(CO)C(OC3OC(CO)C(O)C(O)C3O)C(O)C2O)ccc1Cl` (stereo not shown) [Example 19], the “Porcine Smooth Muscle Cell Antiproliferation percent inhibition” value amounted to 28% @ 50.

The test is the same for the next values; noted with them: @ 100 μM.
With `Cc1ccc(CO[C@@H]2O[C@H](Cn3cnc([N+](=O)[O-])c3)[C@@H](O[C@H]3O[C@H](Cn4cnc([N+](=O)[O-])c4)[C@@H](O)[C@H](O)[C@H]3O)[C@H](O)[C@H]2O)cc1[N+](=O)[O-]` [Example 22, 5-{[6,6′-Dideoxy-6,6′-bis(4-nitro-imidazol-1-yl)-β-maltosyl]-oxy-methyl}-2-methyl-1-nitrobenzene], the “Porcine Smooth Muscle Cell Antiproliferation percent inhibition” value turned out to be 23% @ 100.

Still in this test, the particulars now being: @ 500 μM.
Take `CC(=O)Nc1cc(COC2OC(CO)C(OC3OC(CO)C(O)C(O)C3O)C(O)C2O)ccc1Cl` [Example 9, N-[2-Chloro-5-(β-D-maltosyl-oxymethyl)-phenyl]-acetamide]: the “Porcine Smooth Muscle Cell Antiproliferation percent inhibition” value is 0% @ 500.

Staying with this test, now noted: serum/growth factor stimulated cells, 3H thymidine incorporation, 24-36 h; read-out: Porcine Smooth Muscle Cell Antiproliferation IC50.
With `CC(=O)OC[C@H]1O[C@H](O[C@H]2[C@H](OC(C)=O)[C@@H](OC(C)=O)[C@H](OCc3ccc(Cl)c([N+](=O)[O-])c3)O[C@@H]2COC(C)=O)[C@H](OC(C)=O)[C@@H](OC(C)=O)[C@@H]1OC(C)=O` [Example 1, 4-Chloro-3-nitro-benzyl-β-D-maltoside heptaacetate], the IC50 is 0.85 µM.

Consider `CC(=O)OC[C@H]1O[C@H](O[C@H]2[C@H](OC(C)=O)[C@@H](OC(C)=O)[C@H](OCc3ccc(Cl)c(NC(=O)[C@@H](N)CC(=O)OC(C)(C)C)c3)O[C@@H]2COC(C)=O)[C@H](OC(C)=O)[C@@H](OC(C)=O)[C@@H]1OC(C)=O` [Example 2, N-{5-[(Hepta-O-acetyl-β-D-maltosyloxy)-methyl]-2-chloro-phenyl}-L-aspartamide-γ-tert-butyl ester], for which the IC50 amounted to 4.61 µM.

Turning to `CC(=O)OC[C@H]1O[C@H](O[C@H]2[C@H](OC(C)=O)[C@@H](OC(C)=O)[C@H](OCc3ccc(Cl)c(NC(=O)[C@H](C)NC(=O)OCC4c5ccccc5-c5ccccc54)c3)O[C@@H]2COC(C)=O)[C@H](OC(C)=O)[C@@H](OC(C)=O)[C@@H]1OC(C)=O` [Example 3, N-{2-Chloro-5-[(2,2′,3,3′,4′,6,6′)-hepta-O-acetyl-β-D-maltosyl-oxymethyl]-phenyl}-(9H-fluoren-9-ylmethoxycarbonyl)-L-alaninamide], the IC50 amounted to 1.71 µM.

For `CC(=O)OC[C@H]1O[C@H](O[C@H]2[C@H](OC(C)=O)[C@@H](OC(C)=O)[C@H](OCc3ccc(Cl)c(NC(=O)c4ccc(C(=O)c5ccccc5)cc4)c3)O[C@@H]2COC(C)=O)[C@H](OC(C)=O)[C@@H](OC(C)=O)[C@@H]1OC(C)=O` [Example 4, 4-Benzoyl-N-{2-chloro-5-[(2,2′,3,3′,4′,6,6′-hepta-O-acetyl-β-D-maltosyl)-oxy-methyl]-phenyl}-benzamide], the IC50 was determined as 0.164 µM.

In the case of `CC(=O)OC[C@H]1O[C@@H](SCc2ccc(Cl)c([N+](=O)[O-])c2)[C@H](OC(C)=O)[C@@H](OC(C)=O)[C@@H]1O[C@H]1O[C@H](COC(C)=O)[C@@H](OC(C)=O)[C@H](OC(C)=O)[C@H]1OC(C)=O` [Example 5, (4-Chloro-3-nitro-benzyl)-hepta-O-acetyl-1-thio-β-D-maltoside], the IC50 came to 1.14 µM.

`CC(=O)OC[C@H]1O[C@@H](SCc2ccc(Cl)c(N)c2)[C@H](OC(C)=O)[C@@H](OC(C)=O)[C@@H]1O[C@H]1O[C@H](COC(C)=O)[C@@H](OC(C)=O)[C@H](OC(C)=O)[C@H]1OC(C)=O` [Example 6, (3-Amino-4-chloro-benzyl) hepta-O-acetyl-1-thio-β-D-maltoside]: the IC50 was found to be 0.667 µM.

Turning to `CC(=O)Nc1cc(CS[C@@H]2O[C@H](COC(C)=O)[C@@H](O[C@H]3O[C@H](COC(C)=O)[C@@H](OC(C)=O)[C@H](OC(C)=O)[C@H]3OC(C)=O)[C@H](OC(C)=O)[C@H]2OC(C)=O)ccc1Cl` [Example 7], the IC50 was found to be 7.97 µM.

As to `CC(=O)OC[C@H]1O[C@H](O[C@H]2[C@H](OC(C)=O)[C@@H](OC(C)=O)[C@H](OCc3ccc(C#N)c([N+](=O)[O-])c3)O[C@@H]2COC(C)=O)[C@H](OC(C)=O)[C@@H](OC(C)=O)[C@@H]1OC(C)=O` [Example 8, 5-[(Hepta-O-acetyl-β-D-maltosyl)-oxy-methyl]-2-cyano-1-nitrobenzene], the IC50 turned out to be 2.05 µM.

`CC(=O)Nc1cc(CO[C@@H]2O[C@H](CO[Si](C)(C)C(C)(C)C)[C@@H](O[C@H]3O[C@H](CO[Si](C)(C)C(C)(C)C)[C@@H](O)[C@H](O)[C@H]3O)[C@H](O)[C@H]2O)ccc1C` [Example 10, N-{5-[6,6′-Di-O-(tert-butyl-dimethyl-silyl)-β-D-maltosyloxy-methyl]-2-methyl-phenyl}-acetamide]: the IC50 is 6.1 µM.

For `CC(=O)Nc1cc(CO[C@@H]2O[C@H](CO[Si](C)(C)C(C)(C)C)[C@@H](O[C@H]3O[C@H](CO[Si](C)(C)C(C)(C)C)[C@@H](O)[C@H](O)[C@H]3O)[C@H](O)[C@H]2O)ccc1Cl` [Example 11, N-{2-Chloro-5-[6,6′-di-O-(tert-butyl-dimethyl-silvl)-β-D-maltosyloxy-methyl]-phenyl}-acetamide], the IC50 was determined as 3.9 µM.

As to `CC(=O)Nc1cc(CO[C@@H]2O[C@H](COC(=O)c3ccccc3)[C@@H](O[C@H]3O[C@H](COC(=O)c4ccccc4)[C@@H](O)[C@H](O)[C@H]3O)[C@H](O)[C@H]2O)ccc1Cl` [Example 12, N-{2-Chloro-5-[([6,6′-di-O-benzoyl-β-D-maltosyl]oxy)methyl]phenyl}-acetamide], the IC50 is 0.39 to 2.2 µM.

As for `CC(=O)Nc1cc(CO[C@@H]2O[C@H](COC(=O)c3ccccc3)[C@@H](O[C@H]3O[C@H](COC(=O)c4ccccc4)[C@@H](OC(C)=O)[C@H](OC(C)=O)[C@H]3OC(C)=O)[C@H](OC(C)=O)[C@H]2OC(C)=O)ccc1Cl` [Example 13, N-{2-Chloro-5-[([6,6′-di-O-benzoyl-2,2′,3,3′,4′-penta-acetyl-β-D-maltosyl]oxy)methyl]phenyl}-acetamide], the IC50 was 0.36 µM.

On to `O=C(OC[C@H]1O[C@H](O[C@H]2[C@H](O)[C@@H](O)[C@H](OCc3ccc(Cl)c([N+](=O)[O-])c3)O[C@@H]2COC(=O)c2cccnc2)[C@H](O)[C@@H](O)[C@@H]1O)c1cccnc1` [Example 14, (4-Chloro-3-nitrophenyl)methyl-4-O-[6-O-(3-pyridinylcarbonyl)-α-D-glucopyranosyl]-β-D-glucopyranoside-6-(3-pyridinecarboxylate)], for which the IC50 came out at 6.56 µM.

Regarding `O=C(OC[C@H]1O[C@H](O[C@H]2[C@H](O)[C@@H](O)[C@H](OCc3ccc(Cl)c([N+](=O)[O-])c3)O[C@@H]2CO)[C@H](O)[C@@H](O)[C@@H]1O)c1cccnc1` [Example 15, (4-Chloro-3-nitrophenyl)methyl-4-O-[6-O-(3-pyridinylcarbonyl)-α-D-glucopyranosyl]-β-D-glucopyranoside], the IC50 worked out at 73.2 µM.

Regarding `O=C(Nc1cc(COC2OC(COC(=O)c3ccccc3)C(OC3OC(CO)C(O)C(O)C3O)C(O)C2O)ccc1Cl)c1cccnc1` (stereo not shown) [Example 17, Benzoic acid 6-{4-chloro-3-[(pyridine-3-carbonyl)-amino]-benzyloxy}-4,5-dihydoxy-3-(3,4,5-trihydroxy-6-hydroxymethyl-tetrahydro-pyran-2-yloxy)-tetrahydro-pyran-2-ylmethyl ester hydrochloride], the IC50 came out at 0.245 µM.

Take `Cc1ccc(S(=O)(=O)OC[C@H]2O[C@H](O[C@H]3[C@H](O)[C@@H](O)[C@H](OCc4ccc(C)c([N+](=O)[O-])c4)O[C@@H]3COS(=O)(=O)c3ccc(C)cc3)[C@H](O)[C@@H](O)[C@@H]2O)cc1` [Example 20, 5-{[6,6′-Bis-O-(4-toluenesulfonyl)-β-maltosyl]-oxy-methyl}-2-methyl-1-nitrobenzene]: the IC50 stood at 0.74 µM.

`CC(=O)O[C@@H]1[C@@H](OC(C)=O)[C@@H](O[C@H]2[C@H](OC(C)=O)[C@@H](OC(C)=O)[C@H](OCc3ccc(C)c([N+](=O)[O-])c3)O[C@@H]2COS(=O)(=O)c2ccc(C)cc2)O[C@H](COS(=O)(=O)c2ccc(C)cc2)[C@H]1OC(C)=O` [Example 21, 5-{[2,2′,3,3′,4′-Penta-O-acetyl-6,6′-bis-O-(4-toluenesulfonyl)-β-maltosyl]-oxy-methyl}-2-methyl-1-nitrobenzene]: the IC50 was 67.4 µM.

With `CC(=O)O[C@@H]1[C@@H](OC(C)=O)[C@@H](O[C@H]2[C@H](OC(C)=O)[C@@H](OC(C)=O)[C@H](OCc3ccc(C)c([N+](=O)[O-])c3)O[C@@H]2Cn2cnc([N+](=O)[O-])c2)O[C@H](Cn2cnc([N+](=O)[O-])c2)[C@H]1OC(C)=O` [Example 23, 5-{[2,2′,3,3′,4′-Penta-O-acetyl-6,6′-dideoxy-6,6′-bis(4-nitro-imidazol-1-yl)-β-maltosyl]-oxy-methyl}-2-methyl-1-nitrobenzene], the IC50 stood at 4.7 µM.

The values above are taken from US7514411B2, “Acylated benzylmaltosides as inhibitors of smooth muscle cell proliferation” (Wyeth, priority 1998, dated 2009).
